The values that follow come from ChEMBL document CHEMBL5291721, “A preclinical secondary pharmacology resource illuminates target-adverse drug reaction associations of marketed drugs” (Nat Commun, 2023).

One test addresses T1, Glucocorticoid receptor (Homo sapiens, UniProt P04150).
T1 sequence (P04150 whole entry): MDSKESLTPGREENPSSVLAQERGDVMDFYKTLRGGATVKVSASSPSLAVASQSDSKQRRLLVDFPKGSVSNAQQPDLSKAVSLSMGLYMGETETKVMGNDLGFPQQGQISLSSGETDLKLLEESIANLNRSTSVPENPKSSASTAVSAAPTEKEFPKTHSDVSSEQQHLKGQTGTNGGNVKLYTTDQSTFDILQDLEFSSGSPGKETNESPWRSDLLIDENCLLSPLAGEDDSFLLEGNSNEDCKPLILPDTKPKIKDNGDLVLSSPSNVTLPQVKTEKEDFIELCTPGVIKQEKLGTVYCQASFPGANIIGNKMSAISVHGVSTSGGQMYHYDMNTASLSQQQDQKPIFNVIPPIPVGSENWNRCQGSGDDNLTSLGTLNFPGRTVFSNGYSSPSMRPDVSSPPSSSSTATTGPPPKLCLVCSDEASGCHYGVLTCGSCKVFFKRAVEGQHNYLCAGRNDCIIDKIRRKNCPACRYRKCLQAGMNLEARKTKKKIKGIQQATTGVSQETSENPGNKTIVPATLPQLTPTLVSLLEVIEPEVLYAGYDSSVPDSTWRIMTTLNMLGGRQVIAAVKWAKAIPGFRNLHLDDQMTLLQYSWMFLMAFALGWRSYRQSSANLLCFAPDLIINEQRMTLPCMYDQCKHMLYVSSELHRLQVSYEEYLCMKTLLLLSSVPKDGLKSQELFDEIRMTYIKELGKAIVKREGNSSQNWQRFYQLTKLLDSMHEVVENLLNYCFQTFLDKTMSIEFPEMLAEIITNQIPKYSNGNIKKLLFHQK
The class given is functional.

Test [1] deals with T2, Peroxisome proliferator-activated receptor gamma (Homo sapiens, UniProt P37231).
T2 sequence (P37231 whole entry): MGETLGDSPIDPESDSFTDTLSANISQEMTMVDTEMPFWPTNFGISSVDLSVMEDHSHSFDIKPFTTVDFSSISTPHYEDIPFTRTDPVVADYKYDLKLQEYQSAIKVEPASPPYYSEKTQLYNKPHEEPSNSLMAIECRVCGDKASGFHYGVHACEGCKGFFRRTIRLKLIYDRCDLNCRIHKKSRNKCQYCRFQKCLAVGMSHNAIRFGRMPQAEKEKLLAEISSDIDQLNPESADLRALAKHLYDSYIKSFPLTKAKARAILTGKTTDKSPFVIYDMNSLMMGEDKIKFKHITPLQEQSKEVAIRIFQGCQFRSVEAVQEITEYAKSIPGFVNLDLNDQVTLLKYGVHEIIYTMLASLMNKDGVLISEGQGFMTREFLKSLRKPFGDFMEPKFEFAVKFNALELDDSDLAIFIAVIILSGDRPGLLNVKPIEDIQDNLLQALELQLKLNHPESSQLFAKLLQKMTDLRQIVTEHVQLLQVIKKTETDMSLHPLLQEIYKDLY
The class given is functional.

In test [2] the target is T3, Gastric inhibitory polypeptide receptor (Homo sapiens, UniProt P48546).
T3 sequence (P48546 whole entry): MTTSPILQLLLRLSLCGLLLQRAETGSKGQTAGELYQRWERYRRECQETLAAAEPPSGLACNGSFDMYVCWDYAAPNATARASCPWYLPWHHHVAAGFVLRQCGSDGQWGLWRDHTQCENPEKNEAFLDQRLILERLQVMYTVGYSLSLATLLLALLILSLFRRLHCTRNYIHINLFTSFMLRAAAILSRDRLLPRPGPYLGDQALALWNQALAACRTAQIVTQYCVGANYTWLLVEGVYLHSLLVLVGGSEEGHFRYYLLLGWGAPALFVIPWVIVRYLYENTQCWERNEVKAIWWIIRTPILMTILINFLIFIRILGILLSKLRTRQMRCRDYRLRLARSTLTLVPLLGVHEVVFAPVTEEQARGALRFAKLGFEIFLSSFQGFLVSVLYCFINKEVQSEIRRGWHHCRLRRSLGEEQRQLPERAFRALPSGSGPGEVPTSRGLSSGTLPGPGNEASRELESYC

The target of test [3] is T4, Corticotropin-releasing factor receptor 1 (Homo sapiens, UniProt P34998).
T4 sequence (P34998 whole entry): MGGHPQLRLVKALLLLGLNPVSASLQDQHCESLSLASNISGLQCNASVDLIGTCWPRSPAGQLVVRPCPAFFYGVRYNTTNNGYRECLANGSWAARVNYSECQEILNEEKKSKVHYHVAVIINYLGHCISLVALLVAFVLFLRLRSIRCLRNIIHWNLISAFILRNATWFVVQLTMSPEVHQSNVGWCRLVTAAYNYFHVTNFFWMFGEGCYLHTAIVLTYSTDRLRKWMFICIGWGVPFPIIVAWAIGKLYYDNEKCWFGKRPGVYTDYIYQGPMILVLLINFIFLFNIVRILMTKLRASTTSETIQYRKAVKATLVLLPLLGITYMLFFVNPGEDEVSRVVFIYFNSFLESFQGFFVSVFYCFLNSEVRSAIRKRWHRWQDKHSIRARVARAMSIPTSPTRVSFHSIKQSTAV

The target in test [4] is T5, Muscarinic acetylcholine receptor M2 (Homo sapiens, UniProt P08172).
T5 sequence (P08172 whole entry): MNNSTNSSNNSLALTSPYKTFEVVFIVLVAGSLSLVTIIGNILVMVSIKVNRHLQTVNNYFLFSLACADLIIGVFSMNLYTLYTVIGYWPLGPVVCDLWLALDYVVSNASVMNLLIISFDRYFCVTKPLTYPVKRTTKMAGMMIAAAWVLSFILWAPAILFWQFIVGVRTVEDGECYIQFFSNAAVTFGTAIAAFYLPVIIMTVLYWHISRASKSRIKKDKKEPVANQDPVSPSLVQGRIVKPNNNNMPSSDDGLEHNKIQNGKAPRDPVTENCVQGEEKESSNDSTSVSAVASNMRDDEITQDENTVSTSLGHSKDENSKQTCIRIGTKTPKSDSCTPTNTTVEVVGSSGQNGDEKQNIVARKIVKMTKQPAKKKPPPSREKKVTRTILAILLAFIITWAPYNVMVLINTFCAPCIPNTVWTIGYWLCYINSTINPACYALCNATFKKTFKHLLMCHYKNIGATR

Another test addresses T6, B1 bradykinin receptor (Homo sapiens, UniProt P46663).
T6 sequence (P46663 whole entry): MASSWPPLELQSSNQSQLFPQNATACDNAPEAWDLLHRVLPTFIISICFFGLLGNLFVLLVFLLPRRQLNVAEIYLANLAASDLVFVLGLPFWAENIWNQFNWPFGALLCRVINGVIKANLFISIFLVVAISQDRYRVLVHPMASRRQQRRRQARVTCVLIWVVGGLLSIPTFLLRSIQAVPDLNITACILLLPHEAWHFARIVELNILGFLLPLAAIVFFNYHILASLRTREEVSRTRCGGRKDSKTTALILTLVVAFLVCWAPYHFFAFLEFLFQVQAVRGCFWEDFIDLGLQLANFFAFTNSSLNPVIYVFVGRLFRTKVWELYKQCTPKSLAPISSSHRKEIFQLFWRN
Note: assay procedure not described here.

In the case of `CO/N=C(\C(=O)N[C@@H]1C(=O)N2C(C(=O)[O-])=C(C[N+]3(C)CCCC3)CS[C@H]12)c1csc(N)n1`, the AC50 (on Glucocorticoid receptor; in test [1]) was over 300 µM each time.

For the compound `OCc1cc([C@@H](O)CNCCCCCCOCCOCc2c(Cl)cccc2Cl)ccc1O` [VILANTEROL], the AC50 (on Glucocorticoid receptor; in test [1]) was over 30 µM in each case.

Regarding `CC(N)Cc1ccccc1` (stereo not given) [AMPHETAMINE], the concentration at half-maximal activity (AC50) (in general, the midpoint of the concentration-response curve, whichever way the signal moves) in test [2] was over 30 µM; on Glucocorticoid receptor, over 30 µM; in test [3] it was over 30 µM; in test [4], over 10 µM; at B1 bradykinin receptor, over 30 µM; in test [1], over 30 µM.

In the case of `CC(C)Cc1ccc(CC(=O)O)cc1` [IBUFENAC], the AC50 (at Glucocorticoid receptor; in test [1]) was over 30 µM each time.

Turning to `CC(=O)c1ccc2c(c1)N(CCCN1CCN(CCO)CC1)c1ccccc1S2` [ACETOPHENAZINE], the AC50 (on Glucocorticoid receptor; in test [1]) was over 30 µM throughout.

Regarding `CC(C)NNC(=O)c1ccncc1` [IPRONIAZID], the AC50 (on Glucocorticoid receptor; in test [1]) was over 30 µM throughout.

Turning to `CN1CCCC(n2nc(Cc3ccc(Cl)cc3)c3ccccc3c2=O)CC1` (stereo not given) [AZELASTINE], the AC50 (at Glucocorticoid receptor; in test [1]) was over 30 µM in each case.

`CC[C@H](C)C(=O)O[C@H]1C[C@H](O)C=C2C=C[C@H](C)[C@H](CC[C@@H](O)C[C@@H](O)CC(=O)O)[C@H]21` [PRAVASTATIN]: the AC50 (on Glucocorticoid receptor; in test [1]) was over 30 µM each time.
